We go through one molecule from patent US20070225253A1, “Use of a trioxopyrimidine for the treatment and prevention of bronchial inflammatory diseases” (priority 2004, published 2007).

One may read the pIC50 as −log10 of the IC50, conventionally taken in molar units.

Assay in all cases: MMP enzymatic activity, modified fluorescence assay (DNP-substrate)
Assay type in all cases: biochemical

Assay [1] addresses Human MMP-9 (Homo sapiens, UniProt P14780). How it is done: (§1) IC50 values are measured by an in vitro assay for MMP enzymatic activity. Such an assay is described by Stack, M. S., and Gray, R. D., J. Biol. Chem. 264 (1989) 4277-4281. This assay is based on the determination of MMP enzymatic activity on a dinitrophenol substrate and fluorescence measurement of the substrate after cleaving by MMPs.
(§2) Inhibitors were tested in a modified fluorescence-assay as described by Stack, M. S., and Gray, R. D., J. Biol. Chem. 264 (1989) 4277-4281. Human MMP-1, MMP-2, MMP-3, MMP-9 and MMP-14 are commercially available (e.g. Calbiochem). The pro-enzymes were activated with 1 mM APMA (incubation for 30 min at 37° C.) immediately before testing. Activated enzyme is diluted to 100 ng/ml in incubation buffer (50 mM Tris, 100 mM NaCl, 10 mM CaCl2, pH 7.6). The compounds were dissolved in 100% DMSO. […] DNP-substrate (Bachem M1855, 255 μM) was dissolved in incubation buffer.
(§3) The test tube contains 970 μl incubation buffer, 10 μl inhibitor solution and 10 μl enzyme solution. The reaction was started by adding the 10 μl substrate solution.
(§4) Kinetics of activity were determined using excitation at 280 nm and emission at 346 nm measured on a FluoroMax™ (Spex Industries Inc., Edison, N.J., USA) over 120 sec. DMSO has been used as control instead of inhibitor solution.
(§5) IC50's are defined as the concentration of inhibitor that gives a signal that is 50% of the positive enzyme control.

Assay [2] addresses Human MMP-14 (Homo sapiens, UniProt P50281). How it is done:
as §1, §2, §3, §4, §5

In assay [3] the target is T1, Human MMP-2 (Homo sapiens, UniProt P08253).
T1 sequence (P08253 110-660): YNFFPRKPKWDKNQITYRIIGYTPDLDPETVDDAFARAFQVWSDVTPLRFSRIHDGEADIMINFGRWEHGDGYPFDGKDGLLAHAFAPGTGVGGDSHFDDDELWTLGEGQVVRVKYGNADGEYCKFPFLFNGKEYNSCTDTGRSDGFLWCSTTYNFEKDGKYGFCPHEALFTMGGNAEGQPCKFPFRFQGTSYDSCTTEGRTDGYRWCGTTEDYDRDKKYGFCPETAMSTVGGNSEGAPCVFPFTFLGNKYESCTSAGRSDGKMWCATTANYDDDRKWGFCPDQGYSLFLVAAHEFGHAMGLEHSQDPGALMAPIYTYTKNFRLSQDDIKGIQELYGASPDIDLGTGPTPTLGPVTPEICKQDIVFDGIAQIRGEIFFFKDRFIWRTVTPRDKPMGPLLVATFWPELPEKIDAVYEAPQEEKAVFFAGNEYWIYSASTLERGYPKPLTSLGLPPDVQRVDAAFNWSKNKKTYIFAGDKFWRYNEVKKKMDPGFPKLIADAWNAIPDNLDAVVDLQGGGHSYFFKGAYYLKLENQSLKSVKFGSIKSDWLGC
How it is done: (§6) IC50 values are measured by an in vitro assay for MMP enzymatic activity. […] This assay is based on the determination of MMP enzymatic activity on a dinitrophenol substrate and fluorescence measurement of the substrate after cleaving by MMPs.
(§7) Human MMP-1, MMP-2, MMP-3, MMP-9 and MMP-14 are commercially available (e.g. Calbiochem). The pro-enzymes were activated with 1 mM APMA (incubation for 30 min at 37° C.) immediately before testing. Activated enzyme is diluted to 100 ng/ml in incubation buffer (50 mM Tris, 100 mM NaCl, 10 mM CaCl2, pH 7.6). The compounds were dissolved in 100% DMSO.
as §3

Assay [4] addresses T2, Human MMP-1 (Homo sapiens, UniProt P03956).
T2 sequence (P03956 100-469): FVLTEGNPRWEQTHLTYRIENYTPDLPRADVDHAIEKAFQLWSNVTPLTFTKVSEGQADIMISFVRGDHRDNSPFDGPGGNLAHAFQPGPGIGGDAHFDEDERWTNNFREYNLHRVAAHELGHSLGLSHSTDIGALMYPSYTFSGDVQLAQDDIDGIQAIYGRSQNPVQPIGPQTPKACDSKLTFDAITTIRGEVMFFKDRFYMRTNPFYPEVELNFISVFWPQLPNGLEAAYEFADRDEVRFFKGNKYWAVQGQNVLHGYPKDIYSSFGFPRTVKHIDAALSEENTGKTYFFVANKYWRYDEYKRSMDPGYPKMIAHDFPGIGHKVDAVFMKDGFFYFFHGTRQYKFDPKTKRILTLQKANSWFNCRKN
On the procedure:
as §6, §7, §3

Assay [5] deals with Human MMP-3 (Homo sapiens, UniProt P08254). How it is done: as §6, §7, §3

pIC50: −log10 of the molar value.

Sequence of Human MMP-3 (P08254 100-477): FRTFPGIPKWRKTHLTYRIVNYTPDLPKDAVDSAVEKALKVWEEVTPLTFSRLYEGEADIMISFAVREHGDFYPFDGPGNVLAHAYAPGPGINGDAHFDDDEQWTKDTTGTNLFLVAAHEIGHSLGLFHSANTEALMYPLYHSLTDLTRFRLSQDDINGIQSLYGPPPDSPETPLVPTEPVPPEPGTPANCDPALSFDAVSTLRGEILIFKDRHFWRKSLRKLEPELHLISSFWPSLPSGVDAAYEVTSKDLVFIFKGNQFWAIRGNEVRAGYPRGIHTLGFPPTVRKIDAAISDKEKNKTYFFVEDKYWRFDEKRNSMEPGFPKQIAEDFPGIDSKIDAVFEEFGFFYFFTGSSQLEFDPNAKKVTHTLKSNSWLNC
Sequence of Human MMP-9 (P14780 107-707 limits assumed): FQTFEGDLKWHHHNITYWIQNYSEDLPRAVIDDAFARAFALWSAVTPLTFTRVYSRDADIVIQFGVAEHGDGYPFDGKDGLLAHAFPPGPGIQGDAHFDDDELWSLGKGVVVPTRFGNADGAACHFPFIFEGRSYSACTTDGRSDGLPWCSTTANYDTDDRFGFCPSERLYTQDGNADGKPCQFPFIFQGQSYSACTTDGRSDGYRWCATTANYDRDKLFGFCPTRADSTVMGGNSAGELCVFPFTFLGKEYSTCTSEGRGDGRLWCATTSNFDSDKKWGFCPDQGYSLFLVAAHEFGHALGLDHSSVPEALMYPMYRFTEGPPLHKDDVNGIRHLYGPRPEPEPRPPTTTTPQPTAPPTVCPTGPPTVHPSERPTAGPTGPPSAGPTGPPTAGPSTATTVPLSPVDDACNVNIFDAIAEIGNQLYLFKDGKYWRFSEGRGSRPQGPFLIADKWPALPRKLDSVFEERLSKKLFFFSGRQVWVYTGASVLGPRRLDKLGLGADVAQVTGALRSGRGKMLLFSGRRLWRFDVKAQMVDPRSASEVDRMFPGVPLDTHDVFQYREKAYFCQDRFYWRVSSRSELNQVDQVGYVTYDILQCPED

Take `O=C1NC(=O)C(c2ccc(-c3ccccc3)cc2)(N2CCN(c3ccc([N+](=O)[O-])cc3)CC2)C(=O)N1` [Compound I, 5-Biphenyl-4-yl-5-[4-(4-nitro-phenyl)-piperazin-1-yl]pyrimidine-2,4,6-trione]: the pIC50 was 6.59 in assay [1]; 9.00 in assay [2]; 7.19 in assay [3]; 4.28 in assay [4]; 5.46 in assay [5].
